Measurements reported in ChEMBL document CHEMBL1137399, “Synthesis, structure-activity relationships, and antitumor studies of 2-benzoxazolyl hydrazones derived from alpha-(N)-acyl heteroaromatics” (J Med Chem, 2006).
pIC50: −log10 of the molar value. Active and inactive are the calls of the source. The calls are words filed in the database; no cut-off is given here.

Columns and labels:
CCRF-CEM = experiment: Antiproliferative activity against CCRF-CEM cells by MTT assay; assay type: functional, cell-based; conditions: Homo sapiens
HeLa [1] = experiment: Antiproliferative activity against HeLa cells by SRB assay; assay type: functional, cell-based; conditions: Homo sapiens
HT-29 = experiment: Antiproliferative activity against HT29 cells by SRB assay; assay type: functional, cell-based; conditions: Homo sapiens
Burkitts lymphoma cell = experiment: Antiproliferative activity against Burkitt cells by MTT assay; assay type: functional, cell-based; conditions: Homo sapiens
SF-295 = experiment: Net cell kill against human SF295 cells by hollow fiber assay; assay type: functional, cell-based
HeLa [2] = experiment: Antiproliferative activity against HeLa-mdr1 cells overexpressing P-glycoprotein in presence of verapamil by SRB assay; assay type: functional, cell-based; conditions: Homo sapiens
HL-60 = experiment: Ratio for antiproliferative activity against HL60/AR cells to wild type HL60 by MTT assay; assay type: functional, Homo sapiens
OVCAR-3 = experiment: Net cell kill against human OVCAR-3 cells by hollow fiber assay; assay type: functional, cell-based

| pIC50 (CCRF-CEM) | pIC50 (HeLa [1]) | pIC50 (HT-29) | pIC50 (Burkitts lymphoma cell) | SMILES | Activity (SF-295) | Activity (HeLa [2]) | Ratio IC50 (HL-60) | Activity (OVCAR-3) |
| --- | --- | --- | --- | --- | --- | --- | --- | --- |
| 6.89 | 6.74 | 6.57 | 7.52 | C/C(=N\Nc1nc2ccccc2o1)c1ncccn1 |  |  |  |  |
| < 4.30 | < 4.30 | < 4.30 | < 4.30 | C/C(=N\N(C)c1nc2ccccc2o1)c1ccccn1 |  |  |  |  |
| 6.64 | 6.68 | 6.96 | 7.38 | C/C(=N\Nc1nc2ccccc2o1)c1cc(C)ncn1 |  |  |  |  |
| 7.62 | 6.11 | 5.84 | 8.30 | C/C(=N\Nc1nc2ccccc2o1)c1ccccn1 |  |  |  |  |
| 6.85 | 7.00 | 7.40 | 7.52 | C/C(=N\Nc1nc2ccccc2o1)c1cc2ccccc2cn1 | Active | inactive | 1.7 | Active |
| < 5.00 | < 5.00 | < 5.00 | < 5.00 | CC(C)(C)/C(=N\Nc1nc2ccccc2o1)c1ccccn1 |  |  |  |  |
|  |  |  |  | CC[C@]1(O)C[C@@H]2CN(CCc3c([nH]c4ccccc34)[C@@](C(=O)OC)(c3cc4c(cc3OC)N(C)[C@H]3[C@@](O)(C(=O)OC)[C@H](OC(C)=O)[C@]5(CC)C=CCN6CC[C@]43[C@@H]65)C2)C1 |  | Active |  |  |
| 8.40 | 7.28 | 6.39 | 8.70 | CC/C(=N\Nc1nc2ccccc2o1)c1ccccn1 |  |  |  |  |
| 5.59 | 5.47 | 5.17 | 5.20 | C/C(=N\Nc1nc2ccccc2o1)c1ccc(C)nn1 |  |  |  |  |
| 8.22 | 6.82 | 6.07 | 8.22 | CCC/C(=N\Nc1nc2ccccc2o1)c1ccccn1 |  |  |  |  |
| 7.68 | 6.73 | 6.19 | 7.85 | CC(C)/C(=N\Nc1nc2ccccc2o1)c1ccccn1 |  |  |  |  |
| 6.44 | 6.30 | 6.72 | 6.84 | C/C(=N\Nc1nc2ccccc2o1)c1ccncn1 |  |  |  |  |
| 6.46 | 6.47 | 5.71 | 6.70 | C/C(=N\Nc1nc2ccccc2o1)c1nccc2ccccc12 |  |  |  |  |
| 5.15 | 5.34 | 5.11 | 5.26 | C/C(=N\Nc1nc2ccccc2o1)c1ccc2ccccc2n1 |  |  |  |  |
| 6.21 | 6.43 | 6.54 | 6.82 | C/C(=N\Nc1nc2ccccc2o1)c1cnc(C)cn1 |  |  |  |  |
|  | 6.54 | 5.32 | 7.57 | C/C(=N\Nc1nc2ccccc2o1)c1cccc[n+]1[O-] |  |  |  |  |
|  | 5.35 | 4.69 | 6.73 | c1ccc(/C(=N/Nc2nc3ccccc3o2)C2CC2)nc1 |  |  |  |  |
| 5.89 | 5.73 | 5.67 | 6.05 | C/C(=N\Nc1nc2ccccc2o1)c1nccnc1C |  |  |  |  |
| 7.36 | 6.81 | 5.16 | 7.92 | c1ccc(C(=NNc2nc3ccccc3o2)c2ccccn2)nc1 |  |  |  |  |
| < 5.00 | 7.38 | 6.66 | < 5.00 | c1ccc(C/C(=N\Nc2nc3ccccc3o2)c2ccccn2)cc1 |  |  |  |  |
| 6.14 | 5.93 | 5.58 | 5.89 | C/C(=N\Nc1nc2ccccc2o1)c1cccnn1 |  |  |  |  |
| < 4.00 | < 4.00 | < 4.00 | < 4.00 | C/C(=N\Nc1nc2ccccc2o1)c1cccnc1 |  |  |  |  |
| 7.11 | 7.37 | 7.36 | 6.92 | c1ccc(/C(=N\Nc2nc3ccccc3o2)c2ccccn2)cc1 |  |  |  |  |
